Results: patent publication US4254110A, “Pentofuranosyl anthracyclines, intermediates in and method for their preparation and compositions and use thereof” (Farmitalia Carlo Erba S.p.A., priority 1979, dated 1981)
In brackets after ≈: the same amount, converted by molar mass. Counter-ions that a name gives are not always drawn. Like-named read-outs stand apart in the source and are kept apart here.

Experiments:
P-388 leukemia = assay: Antitumor activity against P-388 leukemia in mice; format: in vivo; details: for antitumor activity compared with daunorubicin and doxorubicin: at the tolerated doses (100~200 mg/Kg); for Toxic Deaths: macroscopic autoptic findings
Method: The antitumor activity of the same compounds was tested against P-388 leukemia in mice.
^(a) Mice were treated i.p. on day 1 after tumor cell inoculation.
^(b) Evaluated on the basis of macroscopic autoptic findings.
^(c) Injected as a water solution.
^(d) Injection as a 5% aqueous ethanol suspension.
^(e) Injected as a 1:9 Tween 80 : water suspension.

HeLa cells = assay: Cytotoxic activity against HeLa cells in vitro (effect on HeLa cells viability); format: cell-based; details: Homo sapiens, read-out: ID50 (effect on HeLa cells viability in vitro)
Method: The cytotoxic activity of several of the new compounds according to the invention were tested against HeLa cells in vitro (time of exposure to the compounds=24 hours) in comparison with daunorubicin and doxorubicin.

[1] = dose 50 mg/Kg i.p. on day 1, III-a as 5% aqueous ethanol suspension, others as 1:9 Tween 80:water suspension
[2] = dose 100 mg/Kg i.p. on day 1, III-a as 5% aqueous ethanol suspension, others as 1:9 Tween 80:water suspension
[3] = dose 200 mg/Kg i.p. on day 1, III-a as 5% aqueous ethanol suspension, others as 1:9 Tween 80:water suspension
[4] = dose 4.4 mg/Kg i.p. on day 1, water solution
[5] = dose 4.4 mg/Kg i.p. on day 1 after tumor cell inoculation, water solution
[6] = dose 6.6 mg/Kg i.p. on day 1, water solution
[7] = dose 6.6 mg/Kg i.p. on day 1 after tumor cell inoculation, water solution

Compound | antitumor activity compared with daunorubicin and doxorubicin (P-388 leukemia) | T/C % (P-388 leukemia; [1]) | Toxic Deaths (P-388 leukemia; [1]) | T/C % (P-388 leukemia; [2]) | Toxic Deaths (P-388 leukemia; [2]) | T/C % (P-388 leukemia; [3]) | Toxic Deaths (P-388 leukemia; [3]) | IC50 (HeLa cells; HeLa cells, 24 hours exposure) | Toxic Deaths (P-388 leukemia; dose 2.9 mg/Kg i.p. on day 1, water solution) | T/C % (P-388 leukemia; dose 2.9 mg/Kg i.p. on day 1 after tumor cell inoculation, water solution) | Toxic Deaths (P-388 leukemia; [4]) | T/C % (P-388 leukemia; [5]) | Toxic Deaths (P-388 leukemia; [6]) | T/C % (P-388 leukemia; [7]) | IC50 (HeLa cells; HeLa, 24 h) | Toxic Deaths (P-388 leukemia; dose 10.0 mg/Kg i.p. on day 1, water solution) | T/C % (P-388 leukemia; dose 10.0 mg/Kg i.p. on day 1 after tumor cell inoculation, water solution)
COc1cccc2c1C(=O)c1c(O)c3c(c(O)c1C2=O)C[C@@](O)(C(C)=O)C[C@@H]3O[C@H]1CC(CO)[C@H](C)O1 (stereo partly drawn) [Compound IV (R3 = H), 7-O-(2,3,5-trideoxy-3-C-hydroxymethyl-α-L-threopentofuranosyl)-daunomycinone] | higher than or comparable to those of both daunorubicin and doxorubicin | 130% | 0/7 | 160% | 0/6 | 220% | 0/5 | 1.6 ng/mL (≈ 0.00312 µM) | – | – | – | – | – | – | – | – | –
COc1cccc2c1C(=O)c1c(O)c3c(c(O)c1C2=O)C[C@@](O)(C(C)=O)C[C@@H]3O[C@H]1C[C@H](N)[C@H](O)[C@H](C)O1 [Daunorubicin . HCl, daunorubicin, reference compound] | – | – | – | – | – | – | – | – | 0/37 | 169% | 0/38 | 167% | 19/38 | 157% | 7.4 ng/mL | – | –
COc1cccc2c1C(=O)c1c(O)c3c(c(O)c1C2=O)C[C@@](O)(C(=O)CO)C[C@@H]3O[C@H]1C[C@H](N)[C@H](O)[C@H](C)O1 [Doxorubicin . HCl, doxorubicin, reference compound] | – | – | – | – | – | – | – | – | – | – | 0/17 | 195% | 0/17 | 206% | 10 ng/mL | 4/18 | 244%
COc1cccc2c1C(=O)c1c(O)c3c(c(O)c1C2=O)C[C@@](O)(C(C)=O)C[C@@H]3O[C@H]1CC(C=O)[C@H](C)O1 (single isomer, unassigned) [Compound III-b] | – | 110% | 0/10 | 110% | 0/10 | 125% | 0/9 | 1.75 ng/mL (≈ 0.00343 µM) | – | – | – | – | – | – | – | – | –
COc1cccc2c1C(=O)c1c(O)c3c(c(O)c1C2=O)C[C@@](O)(C(C)=O)C[C@@H]3O[C@H]1CC(C=O)[C@H](C)O1 (stereo partly drawn) [Compound III-a, 7-O-(2,3,5-trideoxy-3-C-formyl-α-L-threopentofuranosyl)-daunomycinone] | higher than or comparable to those of both daunorubicin and doxorubicin | 168% | 0/8 | 163% | 0/5 | 190% | 2/5 | 320 ng/mL (≈ 0.627 µM) | – | – | – | – | – | – | – | – | –
COc1cccc2c1C(=O)c1c(O)c3c(c(O)c1C2=O)C[C@@](O)(C(=O)CO)C[C@@H]3O[C@H]1CC(C=O)[C@H](C)O1 (stereo partly drawn) [Compound III (R3 = OH), 7-O-(2,3,5-trideoxy-3-C-formyl-α-pentofuranosyl)-adriamycinone] | – | 163% | 0/9 | 190% | 0/9 | 231% | 1/7 | 140 ng/mL (≈ 0.266 µM) | – | – | – | – | – | – | – | – | –
COc1cccc2c1C(=O)c1c(O)c3c(c(O)c1C2=O)C[C@@](O)(C(=O)CO)C[C@@H]3O[C@H]1CC(C=O)[C@H](C)O1 (stereo partly drawn) [III (R3 =OH)] | higher than or comparable to those of both daunorubicin and doxorubicin | – | – | – | – | – | – | – | – | – | – | – | – | – | – | – | –
